Reference: PubChem BioAssay AID434951 (Broad Institute, 2010)
Active and inactive are the calls of the source.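 How the source made its calls: active means a fitted half-maximal concentration EC50 for the rise in nuclear signal no higher than ten times the top dose tested; inconclusive means flat fit with activity between 30% and 70%, or unusable fit; inactive means EC50 beyond ten times the top dose.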

Target: Hypoxia-inducible factor 1-alpha (Homo sapiens) (UniProt Q16665)
Assay: HIF pathway activation, GFP-HIF1alpha translocation – imaging, fluorescence, U2OS GFP-HIF1alpha, confirmation (AID 434951)
Settings: U2OS GFP-HIF1alpha nuclear intensity, high-content imaging

Sequence of Hypoxia-inducible factor 1-alpha (Homo sapiens) (Q16665 whole entry, looked up): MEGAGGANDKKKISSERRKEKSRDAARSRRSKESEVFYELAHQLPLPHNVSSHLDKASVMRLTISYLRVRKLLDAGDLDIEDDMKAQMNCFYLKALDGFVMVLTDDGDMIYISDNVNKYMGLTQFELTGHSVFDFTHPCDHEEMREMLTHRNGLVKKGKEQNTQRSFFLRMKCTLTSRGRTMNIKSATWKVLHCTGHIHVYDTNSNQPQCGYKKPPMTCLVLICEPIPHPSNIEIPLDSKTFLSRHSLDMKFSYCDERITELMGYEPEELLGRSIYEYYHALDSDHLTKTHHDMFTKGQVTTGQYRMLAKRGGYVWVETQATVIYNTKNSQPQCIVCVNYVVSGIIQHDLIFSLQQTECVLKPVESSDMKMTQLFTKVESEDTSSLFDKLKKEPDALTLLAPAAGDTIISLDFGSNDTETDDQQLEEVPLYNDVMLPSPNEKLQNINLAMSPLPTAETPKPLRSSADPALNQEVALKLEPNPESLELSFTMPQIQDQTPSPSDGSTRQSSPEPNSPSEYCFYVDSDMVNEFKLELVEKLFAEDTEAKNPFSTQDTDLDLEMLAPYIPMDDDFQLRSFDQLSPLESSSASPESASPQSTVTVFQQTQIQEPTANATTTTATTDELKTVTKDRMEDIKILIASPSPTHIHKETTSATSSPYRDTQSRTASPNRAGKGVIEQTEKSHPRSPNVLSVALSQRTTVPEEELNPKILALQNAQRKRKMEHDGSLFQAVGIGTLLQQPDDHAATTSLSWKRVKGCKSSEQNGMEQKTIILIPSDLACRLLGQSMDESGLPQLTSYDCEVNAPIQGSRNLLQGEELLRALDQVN

Row | Compound | EC50
1 | CCN1CN(CCc2ccccc2)CNC1=S | > 35 µM (inactive)
2 | CNC(=O)C1CC(=O)N(c2ccc(OCC(=O)N3CCCC3)cc2)C1 (configuration not stated) | > 35 µM (inactive)
3 | CCCCNC(=S)Nc1ccc2cn[nH]c2c1 | > 35 µM (inactive)
4 | CCOC(=O)CN1C(=N)N(c2nc(NC(C)C)nc(NC(C)C)n2)CC1=O | > 35 µM (inactive)
5 | CCC1CCCCN1CCCNC(=O)C1CCN(c2nnc(-n3cccc3)s2)CC1 (configuration not stated) | > 35 µM (inactive)
6 | CCCCNC(=O)CN1C(=O)COc2ccc(S(=O)(=O)N3CCCCCC3)cc21 | > 35 µM (inactive)
7 | CCCCn1c(N)c(N(CC)C(=O)c2cc(OC)cc(OC)c2)c(=O)[nH]c1=O | > 35 µM (inactive)
8 | CCOc1ccc(-c2c(C(=O)N/N=C/c3cccnc3)nnn2-c2nonc2N)cc1 | > 35 µM (inactive)
9 | COc1ccc(-c2csc(NNC3=NCCCCC3)n2)cc1 | 30.1 µM
10 | O=C(c1ccc(F)cc1)N(Cc1cccs1)C1CCS(=O)(=O)C1 (configuration not stated) | > 35 µM (inactive)
11 | Cc1ccc(-c2nnn(CC(=O)N(Cc3cccs3)C(C(=O)NC3CCCCC3)c3ccco3)n2)o1 (configuration not stated) | 33.4 µM
12 | Cn1nc(C(F)(F)F)cc1C(=O)NC1CCCCCC1 | > 35 µM (inactive)
13 | CCOC(=O)c1c(NC(=O)CCC(=O)O)sc2c1CCCCC2 | > 35 µM (inactive)
14 | CC1(C)CC(=O)C(C=NCCN2CCN(C(=S)Nc3cccc(Cl)c3)CC2)=C(O)C1 | > 35 µM (inactive)
15 | COc1ccc(/C=C2\SC(=O)N(CCC(=O)N(C)C3CCS(=O)(=O)C3)C2=O)cc1 (configuration not stated) | > 35 µM (inactive)
16 | O=C(N/N=C/c1cccnc1)c1ccc(NC(=O)c2ccc(Cl)cc2)cc1 | > 35 µM (inactive)
17 | COc1ccc2cc(C(C)C(=O)N3CCC(C(N)=O)CC3)ccc2c1 (configuration not stated) | > 35 µM (inactive)
18 | O=C(NC1CCCC1)c1cc(-c2cccs2)on1 | 7.26 µM
19 | COc1ccccc1-c1cc(C(F)(F)F)nc(S(=O)(=O)CCCC(=O)N2CCCCC2C)n1 (configuration not stated) | > 35 µM (inactive)
20 | CCC1CCc2sc(C(=O)O)cc2C1 (configuration not stated) | > 35 µM (inactive)
21 | C=CCOc1ccc(/C=C2\SC(N)=NC2=O)cc1OC | > 35 µM (inactive)

Row | Compound | EC50
22 | CCN(CC(=O)Nc1ccc2c(c1)OCCO2)CC(=O)Nc1ccc2c(c1)OCO2 | > 35 µM (inactive)
23 | Cc1nc(C)c(C(=O)N/N=C/c2cc(Br)ccc2O)s1 | 7.18 µM
24 | CCCCC(=O)N1CCN(c2nc3ccc(F)cc3s2)CC1 | > 35 µM (inactive)
25 | COc1ccc(C(=O)CCNc2ccc(F)cc2)cc1 | > 35 µM (inactive)
26 | CCN(CC)c1ccc(/C=N/NC(=O)c2nnn(-c3nonc3N)c2C(C)C)c(O)c1 | 3.55 µM
27 | Cn1cccc1C(=O)NC(=O)COC(=O)c1cc(S(=O)(=O)N2CCCCC2)ccc1Cl | > 35 µM (inactive)
28 | COCCN=c1scc(-c2cc(OC)c(OC)c(OC)c2)n1/N=C/c1c(C)[nH]c2ccccc12 | > 35 µM (inactive)
29 | COc1cc(OC)c2nc(C)c3c(c2c1)N(c1ccc(O)cc1)CC3 | > 35 µM (inactive)
30 | CC(C)c1nc(CNC(=O)CCc2nnc(-c3ccsc3)o2)cs1 | > 35 µM (inactive)
31 | COC(=O)C1=C(C)N(C)C(=O)NC1c1cc(Cl)c(O)c(OC)c1 (configuration not stated) | > 35 µM (inactive)
32 | Cc1nc2nc(-c3ccco3)nn2c(C)c1Cl | > 35 µM (inactive)
33 | COC(=O)Nc1ccc(S(=O)(=O)N(C)C)cc1 | > 35 µM (inactive)
34 | FC(F)(F)c1cnc(N2CCN(C(=S)NCc3ccccc3)CC2)c(Cl)c1 | > 35 µM (inactive)
35 | CCOC(=O)c1c(C)nc2cc(C)ccn12 | > 35 µM (inactive)
36 | CC1CCN(Cc2c(C(=O)N/N=C/c3cc(Cl)ccc3O)nnn2-c2nonc2N)CC1 | 13.9 µM
37 | COc1ccc(OC)c(NC(=O)CCc2nnc3ccc(NCc4ccco4)nn23)c1 | > 35 µM (inactive)
38 | O=C(N/N=C/c1cc(Br)ccc1O)C(c1ccncc1)N1CCOCC1 (configuration not stated) | > 35 µM (inactive)
39 | CCC/C(O)=C1\C(=O)CC(C)(C)CC1=NCc1ccccc1 | > 35 µM (inactive)
40 | CN(Cc1cccc(C(F)(F)F)c1)C(=O)C1CCC(=O)N(CC2CCCCC2)C1 (configuration not stated) | > 35 µM (inactive)
41 | CCOC(=O)C1(C)NC(c2ccc(OC)cc2OC)C2C(=O)N(CC)C(=O)C21 (configuration not stated) | > 35 µM (inactive)
42 | CC1(C)CC(=O)C(CC2C(=O)CC(C)(C)CC2=O)C(=O)C1 | > 35 µM (inactive)

The remaining lines, values ahead:

Row | EC50 | Compound
43 | > 35 µM (inactive) | S=C(Nc1ccc2cn[nH]c2c1)Nc1ccccc1Cl
44 | 6.84 µM | O=C(Nc1ccccc1O)c1ccc(NS(=O)(=O)c2cccc3cccnc23)cc1
45 | 8.61 µM | Cc1ccccc1Nc1c(-c2ccccn2)nc2ccccn12
46 | 13.5 µM | O=C(N/N=C/c1cc(Br)ccc1O)c1cccc(N2CCCC2=O)c1
47 | > 35 µM (inactive) | COc1ccc(C(CC(=O)Nc2ccccc2OC)n2cccc2)cc1 (configuration not stated)
48 | > 35 µM (inactive) | COc1cc(SC)ccc1C(=O)NCCc1ccccc1
49 | > 35 µM (inactive) | Oc1cccc(/C=N/c2c(-c3ccco3)nc3ccccn23)c1
50 | > 35 µM (inactive) | Cc1cc(C)cc(NC(=O)c2cccc(NC(=O)c3ccco3)c2)c1
51 | > 35 µM (inactive) | CC(NC(=O)c1cc2c(s1)CS(=O)(=O)C2)c1ccccc1 (configuration not stated)
52 | > 35 µM (inactive) | CC(=O)c1cccc(NC(=O)CSC(=O)c2ccccc2)c1
53 | > 35 µM (inactive) | Cc1c(/C=N/NC(N)=O)c2ccccn2c1C(=O)c1ccncc1
54 | > 35 µM (inactive) | N/C(=N\OC(=O)Cc1cccs1)c1ccccc1
55 | > 35 µM (inactive) | Cc1ccc(C(=O)NC(=S)NNS(=O)(=O)c2ccc(C)cc2)cc1
56 | > 35 µM (inactive) | CC(=O)Cn1c(=O)c2c(nc3n2CCCN3Cc2ccccc2)n(C)c1=O
57 | > 35 µM (inactive) | CN(CCS(=O)(=O)c1ccc(Cl)cc1)Cc1cccnc1
58 | > 35 µM (inactive) | Cc1nn(C(=O)c2cccnc2)c(C)c1Sc1ccccc1
59 | 19.6 µM | O=C(N/N=C/c1ccc(O)cc1O)c1ccc(CN2C(=O)c3cccc4cccc2c34)cc1
60 | > 35 µM (inactive) | CCOC(=O)CCS(=O)(=O)c1nc(-c2ccccc2)cc(C(F)(F)F)n1
61 | 6.07 µM | Oc1c(CN2CCN(c3ccc(F)cc3)CC2)cc(Cl)c2cccnc12
62 | > 35 µM (inactive) | CN(Cc1cccnc1)C(=O)c1cc(COc2ccc3ncccc3c2)on1

Row | EC50 | Compound
63 | 5.41 µM | COc1ccccc1N1CCN(Cc2ccc(O)c3ncccc23)CC1
64 | > 35 µM (inactive) | CCCC(C)NC(=O)CN1C(=O)NC2(CCc3ccccc32)C1=O (configuration not stated)
65 | > 35 µM (inactive) | COc1ccc(NC(=S)N2CCN(C(=O)c3ccccc3)CC2)cc1
66 | 5.92 µM | C/C(=N\NC(=O)Cc1ccc(Cl)cc1)c1ccccn1
67 | > 35 µM (inactive) | Cc1ccccc1NC(=O)CN(C)S(=O)(=O)c1ccc(-c2ccc(=O)[nH]n2)s1
68 | 7.41 µM | O=C(CCCOc1ccc(Cl)cc1Cl)N/N=C/c1ccccc1O
69 | > 35 µM (inactive) | Cc1oc(-c2ccc(Cl)cc2)cc1C(=O)/C(C#N)=C/Nc1cccc(OC(F)(F)F)c1
70 | 1.66 µM | CCCCC(=O)NC(c1ccc(Cl)cc1)c1ccc2cccnc2c1O (configuration not stated)
71 | > 35 µM (inactive) | CN(C)c1ccc(S(=O)(=O)NCC(=O)OCC(=O)Nc2cc(Cl)cc(Cl)c2)cc1[N+](=O)[O-]
72 | > 35 µM (inactive) | Cc1ccc(N=Nc2ccc(O)c(/C=N\NC(=O)c3ccc(N)cc3)c2)cc1C
73 | > 35 µM (inactive) | O=C1C(=O)c2ccccc2C(O)=C1c1cccc([N+](=O)[O-])c1
74 | > 35 µM (inactive) | c1ccc(OCc2nc(-c3ccncc3)no2)cc1
75 | 9.68 µM | O=c1c2ccccc2nc(COc2ccccc2)n1/N=C/c1ccc(O)cc1O
76 | > 35 µM (inactive) | CC(C)(C)c1ccc(N2C(=O)CC(C/C=C/c3ccccc3)C2=O)cc1 (configuration not stated)
77 | > 35 µM (inactive) | COc1cccc(C2C3=C(N=c4s/c(=C\c5ccccc5O)c(=O)n42)c2ccccc2CC3)c1OC (configuration not stated)
78 | 6.81 µM | CCCCC(=O)NC(c1ccccc1OC)c1ccc2cccnc2c1O (configuration not stated)
79 | 6.74 µM | O=C(N/N=C\c1cc(Br)ccc1O)c1ccc(S(=O)(=O)N2CCCCC2)cc1
80 | > 35 µM (inactive) | Cn1c(CO)nc2c3ccccc3ccc21
81 | > 35 µM (inactive) | O=Cc1cc(N=Nc2ccccc2Cl)ccc1O
82 | > 35 µM (inactive) | O=C(Nc1cccc(-c2cn3ccccc3n2)c1)C1CC1

Row | EC50 | Compound
83 | > 35 µM (inactive) | COc1ccc(N2CCN(S(=O)(=O)c3cc(-c4cc(C)no4)ccc3C(C)C)CC2)cc1
84 | 12.5 µM | COc1cccc(/C=N/Nc2cc(-n3nc(C)cc3-c3ccccc3)ncn2)c1O
85 | > 35 µM (inactive) | CCOC(=O)/C(N=Nc1ccc(F)cc1)=C(/O)c1ccc([N+](=O)[O-])cc1
86 | 5.17 µM | Oc1ccc(CN2CCC(Cc3ccccc3)CC2)c2cccnc12
87 | > 35 µM (inactive) | Cc1ccc(S(=O)(=O)c2nc(-c3ccccc3Cl)oc2N(C)C)cc1
88 | > 35 µM (inactive) | Cc1ccc(C)c(CNS(=O)(=O)c2ccc3c(c2)C(C)(C)C(=O)N3C)c1
89 | > 35 µM (inactive) | NS(=O)(=O)c1ccc(NC(=O)c2ccc(CSc3ccccc3)o2)cc1
90 | > 35 µM (inactive) | Cc1ccc(C(=O)Nc2cccc([N+](=O)[O-])c2)cc1S(=O)(=O)Nc1ccc(NC(=O)c2ccccc2)cc1
91 | > 35 µM (inactive) | C=CCN(c1ccccc1)S(=O)(=O)c1cccc(C(=O)Nc2ncccc2O)c1
92 | > 35 µM (inactive) | CCCc1nc2ccccc2c(=O)n1/N=C/c1ccccc1O
93 | > 35 µM (inactive) | Cc1cccc(NC(=O)Cc2noc3ccccc23)c1
94 | 6.2 µM | COc1ccccc1OCC(=O)N/N=C/c1c(O)ccc2ccccc12
95 | 1.33 µM | CC(=O)NC(c1ccc(C(C)C)cc1)c1ccc2cccnc2c1O (configuration not stated)
96 | 33.1 µM | c1ccc(N=Nc2ccc3cccccc2-3)cc1
97 | 5.66 µM | CCOC(=O)c1c(C)[nH]c(C(=O)N/N=C\c2ccccc2O)c1C
98 | 36.5 µM | Cc1nc2ccccc2nc1N/N=C/c1ccc(O)cc1O
99 | > 35 µM (inactive) | CCn1c(SCC(=O)c2cc(C)ccc2C)nc2cc(S(=O)(=O)N3CCOCC3)ccc21
100 | > 35 µM (inactive) | Cc1ccc(N(C)S(=O)(=O)c2ccc(-c3cc(C)no3)s2)cc1
101 | > 35 µM (inactive) | CCOc1cccc(-c2c(C(=O)N/N=C/c3ccc(Br)cc3)nnn2-c2nonc2N)c1
102 | > 35 µM (inactive) | Cc1ccc(NC(=S)N/C(=N/S(=O)(=O)c2ccccc2)c2ccccc2)cc1
